Reference: ChEMBL document CHEMBL3785044, “Phenobarbital metabolism in adults and in newborn infants” (Acta Paediatr Scand, 1978)

Assays:
[1] = Disposition rate constant in subject at 5.21 mg/kg, po by gas chromatography; assay type: ADME, organism-based; settings: female, human, in vivo
[2] = Disposition rate constant in subject at 4.33 mg/kg, po by gas chromatography; assay type: ADME, organism-based; settings: male, human, in vivo
Homo sapiens [3] = test: Disposition rate constant in newborn infants (2 patients) at 12 mg/kg, im by gas chromatography; assay type: ADME, organism-based; settings: in vivo
[4] = Disposition rate constant in newborn infants at 20.6 mg/kg, po by gas chromatography; assay type: ADME, organism-based; settings: human, in vivo
[5] = Disposition rate constant in newborn infants at 11.4 mg/kg, im by gas chromatography; assay type: ADME, organism-based; settings: human, in vivo
[6] = Half life in subject at 5.21 mg/kg, po by gas chromatography; assay type: ADME, organism-based; settings: female, human, in vivo
[7] = Half life in subject at 4.33 mg/kg, po by gas chromatography; assay type: ADME, organism-based; settings: male, human, in vivo
Homo sapiens [8] = test: Half life in newborn infants (2 patients) at 12 mg/kg, im by gas chromatography; assay type: ADME, organism-based; settings: in vivo
[9] = Half life in newborn infants at 20.6 mg/kg, po by gas chromatography; assay type: ADME, organism-based; settings: human, in vivo
[10] = Half life in newborn infants at 11.4 mg/kg, im by gas chromatography; assay type: ADME, organism-based; settings: human, in vivo
Homo sapiens [11] = test: Apparent drug level in subject at 5.21 mg/kg, po measured at time zero by gas chromatography; assay type: ADME, organism-based; settings: in vivo
Homo sapiens [12] = test: Apparent drug level in subject at 4.33 mg/kg, po measured at time zero by gas chromatography; assay type: ADME, organism-based; settings: in vivo
Homo sapiens [13] = test: Apparent drug level in newborn infants (2 patients) at 12 mg/kg, im measured at time zero by gas chromatography; assay type: ADME, organism-based; settings: in vivo
Homo sapiens [14] = test: Apparent drug level in newborn infants at 20.6 mg/kg, po measured at time zero by gas chromatography; assay type: ADME, organism-based; settings: in vivo
Homo sapiens [15] = test: Apparent drug level in newborn infants at 11.4 mg/kg, po measured at time zero by gas chromatography; assay type: ADME, organism-based; settings: in vivo
Homo sapiens [16] = test: Apparent volume of distribution in subject at 5.21 mg/kg, po by gas chromatography; assay type: ADME, organism-based; settings: in vivo
Homo sapiens [17] = test: Apparent volume of distribution in male subject at 4.33 mg/kg, po by gas chromatography; assay type: ADME, organism-based; settings: in vivo
Homo sapiens [18] = test: Apparent volume of distribution in newborn infants (2 patients) at 12 mg/kg, im by gas chromatography; assay type: ADME, organism-based; settings: in vivo
Homo sapiens [19] = test: Apparent volume of distribution in newborn infants at 20.6 mg/kg, po by gas chromatography; assay type: ADME, organism-based; settings: in vivo
Homo sapiens [20] = test: Apparent volume of distribution in newborn infants at 11.4 mg/kg, im by gas chromatography; assay type: ADME, organism-based; settings: in vivo
[21] = Plasma concentration in subject at 5.21 mg/kg, po measured after 17 days by gas chromatography; assay type: ADME, organism-based; settings: female, human
[22] = Drug excretion in subject assessed as phenobarbital, p-hydroxyphenobarbital and conjugated p-hydroxyphenobarbital level in urine at 5.21 mg/kg, po measured during first 2 weeks by gas chromatography; assay type: ADME, organism-based; settings: human, in vivo, 336 h
[23] = Drug excretion in subject assessed as phenobarbital, p-hydroxyphenobarbital and conjugated p-hydroxyphenobarbital level in urine at 4.33 mg/kg, po measured during first 2 weeks by gas chromatography; assay type: ADME, organism-based; settings: human, in vivo, 336 h
[24] = Drug excretion in subject assessed as phenobarbital, p-hydroxyphenobarbital and conjugated p-hydroxyphenobarbital level in urine at 5.21 mg/kg, po measured during 4 week period by gas chromatography; assay type: ADME, organism-based; settings: human, in vivo, 672 h
[25] = Drug excretion in po dosed adult (2 subjects) assessed as unchanged compound level in urine at measured during first 8 days by gas chromatography; assay type: ADME, organism-based; settings: human, read-out: Drug excretion
[26] = Drug excretion in newborn infants (4 patients) assessed as unchanged compound level in urine at measured during first 8 days by gas chromatography; assay type: ADME; settings: human, read-out: Drug excretion
[27] = Drug excretion in newborn infants (4 patients) assessed as p-hydroxy phenobarbital level in urine at measured during first 8 days by gas chromatography; assay type: ADME, tissue-based; settings: human, in vivo, 192 h

For `CCC1(c2ccccc2)C(=O)NC(=O)NC1=O` [PHENOBARBITAL], which k el [1] is on record?
The k el was 1.64e-06 s⁻¹.

And the k el [2]?
The k el was 2.28e-06 s⁻¹.

What about the K (Homo sapiens [3]) of the same molecule?
The K was 0.004 h⁻¹.

And the k el [4]?
The k el was 2.33e-06 s⁻¹.

And the k el [5]?
Its k el is 1.61e-06 s⁻¹.

What about the half-life [6] of the same molecule?
Its half-life is 117 h.

What about the half-life [7] of the same molecule?
The half-life was 84 h.

What about the t1/2 (Homo sapiens [8]) of the same molecule?
Its t1/2 is 61 h.

What about the half-life [9] of the same molecule?
The half-life was 83 h.

What about the half-life [10] of the same molecule?
The half-life was 119 h.

And the Drug uptake (Homo sapiens [11])?
The Drug uptake was 10 µg/mL.

What about the Drug uptake (Homo sapiens [12]) of the same molecule?
The Drug uptake was 9.3 µg/mL.

What about the Drug uptake (Homo sapiens [13]) of the same molecule?
The Drug uptake was 18.1 µg/mL.

What about the Drug uptake (Homo sapiens [14]) of the same molecule?
The Drug uptake was 21 µg/mL.

And the Drug uptake (Homo sapiens [15])?
Its Drug uptake is 17.8 µg/mL.

And the “Vd(app)” value (Homo sapiens [16])?
The value was 0.52 L/kg.

What about the “Vd(app)” value (Homo sapiens [17]) of the same molecule?
Its value is 0.47 L/kg.

And the “Vd(app)” value (Homo sapiens [18])?
The value was 0.59 L/kg.

What about the “Vd(app)” value (Homo sapiens [19]) of the same molecule?
The value was 0.98 L/kg.

What about the “Vd(app)” value (Homo sapiens [20]) of the same molecule?
The value was 0.99 L/kg.

What about the concentration at 408 h [21] of the same molecule?
Its concentration at 408 h is 500 ng/mL.

What about the Drug excretion [22] of the same molecule?
Its Drug excretion is 65%.

What about the Drug excretion [23] of the same molecule?
Its Drug excretion is 35%.

And the Drug excretion [24]?
Its Drug excretion is 75%.

What about the dose excreted at 192 h [25] of the same molecule?
The dose excreted at 192 h was 16%.

And the dose excreted at 192 h [26]?
Its dose excreted at 192 h is 17%.

What about the Drug excretion [27] of the same molecule?
The Drug excretion was 10%.
